Assay results from paper PMC8958505, “Discovery of Potential Neuroprotective Agents against Paclitaxel-Induced Peripheral Neuropathy” (Journal of Medicinal Chemistry, 2022).
Where a name gives a salt, the structure may show the parent alone. Read-outs that look alike come from different tables or passages of the source.

Key:
Adenosine A3 = Adenosine A3 (Homo sapiens, UniProt P0DMS8); experiment: LeadProfilingScreen: Adenosine A3; format: binding
Prostanoid EP4 = Prostanoid EP4 (Homo sapiens, UniProt P35408); experiment: LeadProfilingScreen: Prostanoid EP4; format: binding
Prostanoid EP4, sequence (P35408 whole entry): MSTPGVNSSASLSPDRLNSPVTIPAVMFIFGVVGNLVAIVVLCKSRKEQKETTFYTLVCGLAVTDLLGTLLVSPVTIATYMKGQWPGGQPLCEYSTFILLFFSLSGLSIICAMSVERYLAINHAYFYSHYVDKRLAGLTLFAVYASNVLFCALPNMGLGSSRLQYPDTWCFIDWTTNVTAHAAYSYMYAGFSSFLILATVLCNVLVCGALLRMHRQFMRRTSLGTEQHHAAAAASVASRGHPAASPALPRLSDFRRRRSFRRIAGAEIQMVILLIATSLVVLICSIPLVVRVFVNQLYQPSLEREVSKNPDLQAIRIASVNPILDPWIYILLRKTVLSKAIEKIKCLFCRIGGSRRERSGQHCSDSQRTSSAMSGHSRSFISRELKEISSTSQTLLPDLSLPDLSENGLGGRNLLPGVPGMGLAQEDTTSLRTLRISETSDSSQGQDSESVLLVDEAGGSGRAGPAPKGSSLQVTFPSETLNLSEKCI

[1] = system: mouse primary DRG neurons; experiment: Neurite outgrowth assay of DRG neurons (image-based HCS) against paclitaxel-induced neurotoxicity; format: cell-based; conditions: for activation at 1 µM: Mus musculus, DRG neuron
Experimental: All these 19 compounds were then subjected to the neurite outgrowth assay of dorsal root ganglion (DRG) neurons paired with an image-based HCS to analyze whether they had neuroprotective potential. Quantification of neurite outgrowth under different regimens is shown in Figure 3, wherein DRG neurons incubated in 50 nM paclitaxel could cause 60% reduction in neurite outgrowth compared to the control (no drug treatment). […] Taken together, CN016 is selected as a promising lead for further development.
Primary cortical or DRG cells were fixed with 4% paraformaldehyde for 15 min following compound and paclitaxel treatment. After washing with PBS, the fixed cells were permeabilized with PBS containing 0.05% Triton X-100 for 20 min and then blocked with commercial blocking buffer (#GTX30963; GeneTex, USA) at room temperature for 1 h. Subsequently, the cortical cells were stained for the extending processes and synaptic puncta by using anti-MAP2 (#MBS502140, 1:500; Mybiosource, USA) and anti-synaptophysin (#ab32127, 1:500; Abcam, UK) overnight. DRG cells were stained for the neurite and neuron nucleus by using anti-β III tubulin (#D71G9, 1:600; Cell Signaling, USA) and anti-NeuN monoclonal antibody (#MAB377, 1:400; Millipore, USA) overnight. On the second day, the samples were washed for 30 min with wash buffer and incubated with secondary antibodies (Alexa-488, 647 1:600; Thermo Fisher, USA) and 4 μg/mL Hoechst 33258 (#94403-1ML, 1:100; Merck, USA) at room temperature for 1 h. In the initial experiments of screening the potential neuroprotective compound for CIPN, ImageXpress^Micro (IXM) high-content imaging system (Molecular Devices, USA) driven by MetaXpress software was used. Images of treated cells were automatically acquired by using a 10× objective. Twenty-one images per well were taken in each of three channels (DAPI, FITC, and Cy5) to create a whole view of the entire neural network. The integrity of the neural network was evaluated using TIF images by importing them into MetaXpress software for analysis using the module for multiparameter, such as Neurite Outgrowth, Cell Scoring, and Transfluor. Furthermore, the score of synaptogenesis was analyzed in AcuityXpress software (Molecular Devices, USA).

Neuropeptide Y Y2 = Neuropeptide Y Y2 (Homo sapiens, UniProt P49146); experiment: LeadProfilingScreen: Neuropeptide Y Y2; format: binding
Neuropeptide Y Y2, sequence (P49146 whole entry): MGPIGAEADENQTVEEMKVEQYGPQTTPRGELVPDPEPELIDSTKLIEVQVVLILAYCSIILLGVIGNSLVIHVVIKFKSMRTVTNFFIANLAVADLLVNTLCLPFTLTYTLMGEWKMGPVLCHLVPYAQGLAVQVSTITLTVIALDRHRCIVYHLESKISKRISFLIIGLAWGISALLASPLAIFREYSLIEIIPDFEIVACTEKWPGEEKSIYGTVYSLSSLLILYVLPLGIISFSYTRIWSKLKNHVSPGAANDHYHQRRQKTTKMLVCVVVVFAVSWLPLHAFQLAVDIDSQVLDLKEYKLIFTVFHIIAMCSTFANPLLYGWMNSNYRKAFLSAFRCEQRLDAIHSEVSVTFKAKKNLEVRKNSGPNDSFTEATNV

[2] = system: panel of selected 67 commercially available receptors and enzymes; experiment: 67 off-target study (LeadProfilingScreen), whole panel; format: binding; conditions: 10 μM
From the text: LeadProfilingScreen (Total # of Assays: 67)
To evaluate, in LeadProfilingScreen, the activity of test compound CN168 (Panlabs # 1251879). […]
Summary of Significant Results
Biochemical assay results are presented as the percent inhibition of specific binding or activity throughout the report.
All other results are expressed in terms of that assay's quantitation method.
• For primary assays, only the lowest concentration with a significant response judged by the assays' criteria, is […]
• Where applicable, either the secondary assay results with the lowest dose/concentration meeting the significance […]
• Unless otherwise requested, primary screening in duplicate with quantitative data (e.g., IC50 ± SEM, Ki ± SEM and nH) are shown where applicable for individual requested assays. In screening packages, primary screening in duplicate with semi-quantitative data (e.g., estimated IC50, Ki and nH) are shown where applicable (concentration range of 4 log units); available secondary functional assays are carried out ([…]) and MEC or MIC determined only if active in primary assays >50% at 1 log unit below initial test concentration. […]

[3] = system: macrophages and microglia in DRG tissues; experiment: Immunofluorescence of macrophages and microglia in DRG tissues; format: in vivo, mouse; conditions: day 7
Experimental: DRG tissues were isolated on day 7 after first paclitaxel injection. The tissues were fixed in 4% paraformaldehyde at 4 °C overnight and subsequently placed in 30% sucrose for sample dehydration. During the frozen section procedure, the tissues were embedded in OCT (EMS; #14120) and sectioned into 20 μm thick slices. The DRG tissue sections were permeabilized with 0.1% Triton X-100 in PBS for 1 h and then blocked with CAS-Block solution (#008120; Thermo Fisher, USA) at room temperature for another 1 h. DRG tissue sections were stained with primary antibody against CD68 (1:100 dilution; Novus), NOS2 (1:100 dilution; Santa Cruz), Arginase-1 (1:100 dilution; Santa Cruz), and Iba-1 (1:100 dilution; Santa Cruz) at 4 °C overnight. Afterward, the samples were washed with PBS and stained with secondary antibodies (Alexa-488, 594, 1:200 dilution; Invitrogen) and Hoechst 33342 (4 μg/mL; Invitrogen) at room temperature for 1 h. A 60× objective by an Olympus FV3000 confocal microscope was used to acquire immunofluorescence images.

[4] = system: Purinergic P2Y, Non-Selective; experiment: LeadProfilingScreen: Purinergic P2Y, Non-Selective; format: binding, rat; conditions: 10 μM
Glucocorticoid = Glucocorticoid (Homo sapiens, UniProt P04150); experiment: LeadProfilingScreen: Glucocorticoid; format: binding
Glucocorticoid, sequence (P04150 whole entry): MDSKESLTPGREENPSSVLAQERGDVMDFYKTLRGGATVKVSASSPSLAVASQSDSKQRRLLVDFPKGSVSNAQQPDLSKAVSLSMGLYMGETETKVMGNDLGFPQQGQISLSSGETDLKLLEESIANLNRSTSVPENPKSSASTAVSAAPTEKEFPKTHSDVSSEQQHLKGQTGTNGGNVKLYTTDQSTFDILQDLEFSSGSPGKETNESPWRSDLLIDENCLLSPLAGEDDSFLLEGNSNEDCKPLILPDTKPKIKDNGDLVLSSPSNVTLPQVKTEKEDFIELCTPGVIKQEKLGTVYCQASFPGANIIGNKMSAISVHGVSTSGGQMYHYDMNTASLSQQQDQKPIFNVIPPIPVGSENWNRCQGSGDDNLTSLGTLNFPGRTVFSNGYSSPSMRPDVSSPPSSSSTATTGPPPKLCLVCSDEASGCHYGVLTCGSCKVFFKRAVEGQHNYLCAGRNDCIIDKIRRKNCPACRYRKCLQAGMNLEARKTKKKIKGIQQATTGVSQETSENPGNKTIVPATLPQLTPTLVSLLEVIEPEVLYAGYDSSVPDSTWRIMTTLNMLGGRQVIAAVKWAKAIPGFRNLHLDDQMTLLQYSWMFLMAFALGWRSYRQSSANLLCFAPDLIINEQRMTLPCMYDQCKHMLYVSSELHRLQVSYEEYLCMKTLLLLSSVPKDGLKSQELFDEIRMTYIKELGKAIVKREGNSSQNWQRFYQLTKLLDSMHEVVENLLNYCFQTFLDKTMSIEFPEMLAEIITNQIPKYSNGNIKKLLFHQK

Glutamate, NMDA, Glycine = Glutamate, NMDA, Glycine (Rattus norvegicus, UniProt P35439); experiment: LeadProfilingScreen: Glutamate, NMDA, Glycine; format: binding
Muscarinic M1 = Muscarinic M1 (Homo sapiens, UniProt P11229); experiment: LeadProfilingScreen: Muscarinic M1; format: binding
Muscarinic M1, sequence (P11229 whole entry): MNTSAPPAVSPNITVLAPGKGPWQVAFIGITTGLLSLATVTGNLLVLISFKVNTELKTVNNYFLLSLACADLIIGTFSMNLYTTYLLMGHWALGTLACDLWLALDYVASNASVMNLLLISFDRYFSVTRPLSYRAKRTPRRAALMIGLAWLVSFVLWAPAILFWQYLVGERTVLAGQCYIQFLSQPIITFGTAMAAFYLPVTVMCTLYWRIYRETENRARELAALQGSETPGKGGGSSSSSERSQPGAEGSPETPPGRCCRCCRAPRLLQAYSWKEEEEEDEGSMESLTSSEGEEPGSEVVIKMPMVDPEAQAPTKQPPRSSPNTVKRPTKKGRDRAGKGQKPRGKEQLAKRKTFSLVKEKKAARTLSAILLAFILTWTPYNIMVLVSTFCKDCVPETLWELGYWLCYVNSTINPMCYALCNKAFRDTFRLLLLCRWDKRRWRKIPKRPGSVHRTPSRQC

Adenosine A3, sequence (P0DMS8 whole entry): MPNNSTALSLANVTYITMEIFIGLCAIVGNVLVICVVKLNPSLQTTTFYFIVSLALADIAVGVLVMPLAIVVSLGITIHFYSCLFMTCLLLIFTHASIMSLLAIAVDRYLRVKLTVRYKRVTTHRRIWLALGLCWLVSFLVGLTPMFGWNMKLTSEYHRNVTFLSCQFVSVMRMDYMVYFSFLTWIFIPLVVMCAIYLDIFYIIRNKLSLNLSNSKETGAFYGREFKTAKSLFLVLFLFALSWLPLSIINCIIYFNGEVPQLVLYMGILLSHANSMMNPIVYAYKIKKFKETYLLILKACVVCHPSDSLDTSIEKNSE

O=P(O)(O)CCN1CCC(Nc2cc(N3CCOCC3)nc(NCc3cn(CCCO)nn3)n2)CC1 [CN016, {2-[4-(2-{[1-(3-Hydroxy-propyl)-1H-[1,2,3]triazol-4-ylmethyl]-amino}-6-morpholin-4-yl-pyrimidin-4-ylamino)-piperidin-1-yl]-ethyl}-phosphonic Acid Hydrobromide Salt]
inhibition at 10 µM (Adenosine A3): 0% | inhibition at 10 µM (Prostanoid EP4): 4% | activation at 1 µM ([1]; Table 1, A: neurite outgrowth (% of control) of test compound 1000 nM + paclitaxel 50 nM, B: paclitaxel 50 nM alone, DRG neurons, read-out: Neuroprotection rate = (A-B)±S.E.M [%]): 21% | activation at 1 µM ([1]; Table S2, test compound 1000 nM + paclitaxel 50 nM minus paclitaxel 50 nM, read-out: Neuroprotection rate = (A-B) ± S.E.M [%]): 21 ± 0.77% | activation at 1 µM ([1]; supplementary CSV, test compound 1000 nM, read-out: A-B (A: neurite outgrowth (% of control) of test compound (1000 nM) + paclitaxel (50 nM), B: of paclitaxel (50 nM))): 21% | in vitro effective concentration ([1]; neurite outgrowth assay): 10 nM | protective efficacy against paclitaxel-induced neurotoxicity (in words) ([1]; pretreated, + 50 nM paclitaxel, DRG neurons): exhibited protective efficacy | increase of neurite length compared to the positive control (paclitaxel-treated alone) ([1]; pretreated, + 50 nM paclitaxel, Figure 3B): 24–28% | inhibition at 10 µM (Neuropeptide Y Y2): 10% | Significant responses (≥ 50% inhibition or stimulation) in the primary assays [2]: No significant results noted | inhibitory activity for each tested item of the 67 panel [2]: < 20% | infiltration of M1 and M2 macrophages in DRG tissues ([3]; CN016 10 or 20 mg/kg before paclitaxel): significantly diminished | paclitaxel-induced M1 and M2 macrophages recruitment ([3]; CN016 low dosage): failed to inhibit | paclitaxel-induced activation of M1 microglia in DRG neurons [3]: dramatically reduce | Inhibition (%), Purinergic P2Y [4]: 9% | inhibition at 10 µM (Glucocorticoid): 14% | inhibition at 10 µM (Glutamate, NMDA, Glycine): -5% | inhibition at 10 µM (Muscarinic M1): 5%
